# Assay results published in US10813903B2, “Compositions comprising 15-HEPE and methods of using the same” (Afimmune Limited, priority 2013, dated 2020).
# Test system: STAM model of Non-alcoholic Steatohepatitis
# Assay: in vivo efficacy study of 15-OHEPA and EPA in STAM model of non-alcoholic steatohepatitis
# Design: species or system C57BL/6 mice
# Details: for liver weight as compared to the vehicle control: FIG. 1.2; for NAFLD Activity score (NAS) as compared to the vehicle control: HE staining, FIGS. 2.1 and 2.2
# Excerpt: The purpose of this study was to examine the effects of 15-OHEPA and EPA in the STAM model of Non-alcoholic Steatohepatitis. Pathogen-free15-day-pregnant C57BL/6 mice were obtained from Charles River Laboratories in Japan Inc. (Kanagawa, Japan). NASH was established in male mice by a single subcutaneous injection of streptozotocin (STZ) (Sigma, USA) after birth and feeding with a high fat diet (HFD; CLEA) Japan, Japan) ad libitum after 4 weeks of age (day 28±2). Mice were randomized into 5 groups of 8 mice at 5 weeks of age (day 35±2) the day before the start of treatment. During the treatment period, individual body weight was measured daily as well as clinical signs of behavior and survival. Group 1 (Vehicle): Eight NASH mice were orally administered vehicle [olive oil] in a volume of 10 mL/kg once daily from 5 to 9 weeks of age. Group 2 (15-OHEPA 50 mg/kg): Eight NASH mice were orally administered vehicle supplemented with 15-OHEPA at a dose of 50 mg/kg once daily from 5 to 9 weeks of age. Group 3 (15-OHEPA 500 mg/kg): Eight NASH mice were orally administered vehicle supplemented with 15-OHEPA at a dose of 500 mg/kg once daily from 5 to 9 weeks of age. Group 4 (EPA 500 mg/kg): Eight NASH mice were orally administered vehicle supplemented with EPA at a dose 500 mg/kg once daily from 5 to 9 weeks of age. Group 5 (positive control): Eight NASH mice were orally administered pure water supplemented with Telmisartan at a dose of 10 mg/kg once daily from 5 to 9 weeks of age. At 9 weeks of age, all mice were sacrificed and the following data was recorded; • Individual liver weight • Liver to body weight ratio Histopathological analyses of liver sections were performed using HE staining (to estimate NAFLD Activity score). For HE staining, sections were cut from paraffin blocks of liver tissue prefixed in Bouin's solution and stained with Lillie-Mayer's Hematoxylin (Muto Pure Chemicals, Japan) and eosin solution (Wako Pure Chemical Industries). NAFLD Activity score (NAS) was calculated according to the criteria of Kleiner (Kleiner D E. et al., Hepatology, 2005; 41:1313). Statistical tests were performed using Bonferroni Multiple Comparison Test. P values <0.05 were considered statistically significant.
# [1] = positive control, Telmisartan 10 mg/kg oral once daily from 5 to 9 weeks of age
# [2] = 15-OHEPA 500 mg/kg oral once daily from 5 to 9 weeks of age
SMILES,liver weight as compared to the vehicle control [1],NAFLD Activity score (NAS) as compared to the vehicle control [1],liver weight as compared to the vehicle control [2],NAFLD Activity score (NAS) as compared to the vehicle control [2],potency in the treatment of FLD relative to EPA (summary statement)
"CCCc1nc2c(C)cc(-c3nc4ccccc4n3C)cc2n1Cc1ccc(-c2ccccc2C(=O)O)cc1 [telmisartan, Telmisartan, reference compound]",significant reduction,significantly decreased,–,–,–
"CCC=CCC(O)C=CC=CCC=CCC=CCCCC(=O)O (centres unmarked) [15-OHEPA, 15-Hydroxy-eicosa-5,8,11,13,17-pentaenoic acid]",–,–,significant reduction,significantly decreased,more potent than EPA
